According to BindingDB's records for doi:10.1016/j.bmcl.2009.03.071 (Wyeth Research, 2009):

What was measured:
Test in all cases: Radioligand Binding Assay (Ki)
Conditions in all cases: pH 7.4; 22 °C
[1] = biological target: 5-hydroxytryptamine receptor 7 (Homo sapiens, UniProt P34969)
Description: (§1) Competition experiments were performed in the presence radioligand with membrane protein (obtained from cells expressing the receptor) and test compounds. The mixture was incubated at room temperature for 60 min and the reaction stopped by rapid filtration onto a 96-well GF/B filter using a Packard Filtermate harvester. Radioactivity retained on the filters was measured by liquid scintillation in a Packard TopCount. IC50 values for test compounds were determined from nonlinear regression analysis of data collected from ligand binding experiments. The inhibition constant (Ki) was calculated from IC50 value by the Cheng and Prusoff equation.

[2] = biological target: T1, 5-hydroxytryptamine receptor 2C (Homo sapiens, UniProt P28335)
T1 sequence (P28335 whole entry): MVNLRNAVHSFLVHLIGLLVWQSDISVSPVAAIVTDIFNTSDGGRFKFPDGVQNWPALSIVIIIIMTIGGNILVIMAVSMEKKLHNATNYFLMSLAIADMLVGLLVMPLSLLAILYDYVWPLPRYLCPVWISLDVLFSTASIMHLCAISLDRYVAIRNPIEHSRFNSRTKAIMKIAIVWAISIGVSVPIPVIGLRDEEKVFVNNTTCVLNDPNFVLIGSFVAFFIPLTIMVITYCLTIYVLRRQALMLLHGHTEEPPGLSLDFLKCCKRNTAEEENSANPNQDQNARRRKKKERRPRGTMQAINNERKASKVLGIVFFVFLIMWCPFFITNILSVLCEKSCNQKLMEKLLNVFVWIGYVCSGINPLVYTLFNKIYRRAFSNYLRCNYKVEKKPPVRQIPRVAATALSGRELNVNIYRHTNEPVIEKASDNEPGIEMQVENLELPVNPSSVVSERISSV
Description: as §1

[3] = biological target: T2, 5-hydroxytryptamine receptor 1A (Homo sapiens, UniProt P08908)
T2 sequence (P08908 whole entry): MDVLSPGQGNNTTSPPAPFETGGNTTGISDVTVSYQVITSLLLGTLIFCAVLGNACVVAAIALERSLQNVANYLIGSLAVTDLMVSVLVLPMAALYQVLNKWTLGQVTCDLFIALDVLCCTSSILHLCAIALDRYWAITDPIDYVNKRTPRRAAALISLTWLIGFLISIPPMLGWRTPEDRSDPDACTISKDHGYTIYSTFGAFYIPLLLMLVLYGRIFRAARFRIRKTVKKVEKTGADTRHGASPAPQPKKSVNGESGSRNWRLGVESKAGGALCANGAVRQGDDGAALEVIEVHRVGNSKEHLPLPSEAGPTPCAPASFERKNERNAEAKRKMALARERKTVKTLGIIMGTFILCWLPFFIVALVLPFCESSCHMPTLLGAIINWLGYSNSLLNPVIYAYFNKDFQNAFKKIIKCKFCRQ
Description: as §1

[4] = biological target: 5-hydroxytryptamine receptor 1D (Homo sapiens, UniProt P28221)
Description: as §1

[5] = biological target: 5-hydroxytryptamine receptor 1B (Homo sapiens, UniProt P28222)
Description: as §1

[6] = biological target: 5-hydroxytryptamine receptor 2B (Homo sapiens, UniProt P41595)
Description: as §1

[7] = biological target: D(2) dopamine receptor (Homo sapiens, UniProt P14416)
Description: as §1

5-hydroxytryptamine receptor 2B, sequence (P41595 whole entry): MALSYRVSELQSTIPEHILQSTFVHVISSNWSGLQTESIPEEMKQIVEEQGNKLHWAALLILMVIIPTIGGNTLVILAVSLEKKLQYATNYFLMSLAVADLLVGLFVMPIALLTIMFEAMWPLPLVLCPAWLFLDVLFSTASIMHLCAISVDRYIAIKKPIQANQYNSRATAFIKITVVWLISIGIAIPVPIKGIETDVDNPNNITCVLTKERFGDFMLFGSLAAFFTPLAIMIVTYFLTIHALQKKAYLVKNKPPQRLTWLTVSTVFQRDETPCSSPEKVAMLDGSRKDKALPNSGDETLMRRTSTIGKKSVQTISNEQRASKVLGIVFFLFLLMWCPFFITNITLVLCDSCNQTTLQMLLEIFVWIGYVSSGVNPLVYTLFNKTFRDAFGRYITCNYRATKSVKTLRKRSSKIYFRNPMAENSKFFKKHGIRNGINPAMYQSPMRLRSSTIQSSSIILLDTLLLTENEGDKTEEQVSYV
5-hydroxytryptamine receptor 1D, sequence (P28221 whole entry): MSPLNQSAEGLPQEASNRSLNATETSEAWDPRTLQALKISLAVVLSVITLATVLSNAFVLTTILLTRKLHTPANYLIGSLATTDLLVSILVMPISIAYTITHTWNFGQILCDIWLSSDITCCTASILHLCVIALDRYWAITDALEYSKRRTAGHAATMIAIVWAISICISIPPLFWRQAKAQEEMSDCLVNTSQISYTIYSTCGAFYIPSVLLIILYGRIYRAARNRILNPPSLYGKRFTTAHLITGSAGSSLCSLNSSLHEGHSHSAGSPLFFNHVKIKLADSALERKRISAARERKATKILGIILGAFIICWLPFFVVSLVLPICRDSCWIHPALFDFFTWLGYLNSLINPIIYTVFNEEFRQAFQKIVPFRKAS
5-hydroxytryptamine receptor 7, sequence (P34969 whole entry): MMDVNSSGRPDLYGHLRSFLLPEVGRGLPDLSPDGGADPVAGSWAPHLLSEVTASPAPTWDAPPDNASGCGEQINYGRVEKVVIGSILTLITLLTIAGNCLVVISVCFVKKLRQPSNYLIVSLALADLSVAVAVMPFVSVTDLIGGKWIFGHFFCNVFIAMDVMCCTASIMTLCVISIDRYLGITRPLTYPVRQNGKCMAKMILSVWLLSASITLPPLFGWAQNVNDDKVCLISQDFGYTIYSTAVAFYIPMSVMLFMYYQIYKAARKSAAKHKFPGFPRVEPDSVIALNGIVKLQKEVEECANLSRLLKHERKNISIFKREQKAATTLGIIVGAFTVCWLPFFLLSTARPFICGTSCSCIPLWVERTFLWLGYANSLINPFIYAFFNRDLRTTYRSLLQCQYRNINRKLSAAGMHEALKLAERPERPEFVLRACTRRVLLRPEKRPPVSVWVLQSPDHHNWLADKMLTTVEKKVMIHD
D(2) dopamine receptor, sequence (P14416 whole entry): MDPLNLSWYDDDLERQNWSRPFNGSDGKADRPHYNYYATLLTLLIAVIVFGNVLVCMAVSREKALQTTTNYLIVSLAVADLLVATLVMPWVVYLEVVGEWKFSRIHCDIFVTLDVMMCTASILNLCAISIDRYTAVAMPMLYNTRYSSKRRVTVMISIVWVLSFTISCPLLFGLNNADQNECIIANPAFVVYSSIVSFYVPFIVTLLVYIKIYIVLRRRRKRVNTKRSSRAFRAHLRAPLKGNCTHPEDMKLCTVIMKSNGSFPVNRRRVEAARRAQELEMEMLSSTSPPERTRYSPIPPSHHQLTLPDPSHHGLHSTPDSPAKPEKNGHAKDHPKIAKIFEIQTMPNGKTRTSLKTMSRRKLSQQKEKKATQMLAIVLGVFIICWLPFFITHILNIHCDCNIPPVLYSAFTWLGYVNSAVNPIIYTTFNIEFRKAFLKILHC
5-hydroxytryptamine receptor 1B, sequence (P28222 whole entry): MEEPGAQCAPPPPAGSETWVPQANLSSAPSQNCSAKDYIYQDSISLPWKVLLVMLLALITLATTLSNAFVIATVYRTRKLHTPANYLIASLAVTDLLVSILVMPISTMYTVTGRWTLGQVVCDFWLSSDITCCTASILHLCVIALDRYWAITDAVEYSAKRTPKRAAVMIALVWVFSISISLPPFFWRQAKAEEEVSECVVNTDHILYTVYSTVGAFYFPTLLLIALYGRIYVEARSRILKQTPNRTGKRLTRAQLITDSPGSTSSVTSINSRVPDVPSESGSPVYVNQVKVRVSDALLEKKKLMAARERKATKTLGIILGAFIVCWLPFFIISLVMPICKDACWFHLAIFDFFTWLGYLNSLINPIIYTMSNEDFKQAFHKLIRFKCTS

NCCC(=O)Nc1ccc2cnn(S(=O)(=O)c3cccc4ccccc34)c2c1 [3-amino-N-[1-(naphthalene-1-sulfonyl)-1H-indazol-6-yl]propanamide]
Ki [1]: 5.1 µM
Ki [2]: > 2 µM
Ki [3]: 6.4 µM
Ki [4]: > 2 µM
Ki [5]: > 2 µM
Ki [6]: 0.155 µM
Ki [7]: > 2 µM
